Data taken from ChEMBL document CHEMBL3600324, “Design, synthesis and evaluation of MCH receptor 1 antagonists--Part II: Optimization of pyridazines toward reduced phospholipidosis and hERG inhibition” (Bioorg Med Chem Lett, 2015).

Key:
[1] = biological target: Melanin-concentrating hormone receptor 1 (Homo sapiens, UniProt Q99705); experiment: Displacement of [125I-MCH] from human MCH receptor 1 expressed in CHO cell membranes by scintillation counting method
[2] = biological target: T1, Muscarinic acetylcholine receptor M1 (Homo sapiens, UniProt P11229); experiment: Binding affinity to muscarinic M1 receptor (unknown origin)
T1 sequence (P11229 whole entry): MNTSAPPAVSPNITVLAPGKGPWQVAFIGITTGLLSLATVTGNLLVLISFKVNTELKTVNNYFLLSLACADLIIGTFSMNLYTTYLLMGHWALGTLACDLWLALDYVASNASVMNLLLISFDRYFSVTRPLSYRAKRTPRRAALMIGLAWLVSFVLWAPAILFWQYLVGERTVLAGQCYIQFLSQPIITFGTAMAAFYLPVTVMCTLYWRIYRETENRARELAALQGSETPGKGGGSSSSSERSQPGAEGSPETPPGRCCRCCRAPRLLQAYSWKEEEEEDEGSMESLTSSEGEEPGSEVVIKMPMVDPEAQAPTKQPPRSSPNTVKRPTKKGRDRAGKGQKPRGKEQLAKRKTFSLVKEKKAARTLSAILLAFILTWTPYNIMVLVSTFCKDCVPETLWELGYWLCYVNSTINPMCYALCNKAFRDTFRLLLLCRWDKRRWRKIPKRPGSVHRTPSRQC

U-937 = experiment: Toxicity in human U937 cells assessed as phospholipidosis first effect concentration by Nile red based fluorescence assay; format: cell-based
[3] = biological target: 5-hydroxytryptamine receptor 2A (Homo sapiens, UniProt P28223); experiment: Binding affinity to 5HT2A receptor (unknown origin)
hERG (KCNH2) [4] = biological target: T2, hERG (KCNH2) (Homo sapiens, UniProt Q12809); experiment: Inhibition of human ERG at 1 uM by patch clamp assay
[5] = Mean residence time in Wistar rat at 6.7 umol/kg, po; format: ADME, organism-based; conditions: in vivo
Rattus norvegicus [6] = experiment: AUC in Wistar rat at 6.7 umol/kg, po; format: ADME, organism-based; conditions: in vivo
Rattus norvegicus [7] = experiment: Dose normalized Cmax in Wistar rat at 6.7 umol/kg, po; format: ADME, organism-based; conditions: in vivo
hERG (KCNH2) [8] = biological target: T2, hERG (KCNH2); experiment: Inhibition of human ERG at 10 uM by patch clamp assay
[9] = Tmax in Wistar rat at 6.7 umol/kg, po; format: ADME, organism-based; conditions: in vivo
[10] = Dissociation constant, pKa of the compound; format: physicochemical
CHO [11] = experiment: Selectivity index, ratio of IC50 for 5HT2A receptor (unknown origin) to IC50 for human MCH receptor 1 expressed in CHO cell membranes; format: cell-based
CHO [12] = experiment: Selectivity index, ratio of IC50 for muscarinic M1 receptor (unknown origin) to IC50 for human MCH receptor 1 expressed in CHO cell membranes; format: cell-based
Rattus norvegicus [13] = experiment: Dose normalized Cmax in Wistar rat at 11.9 umol/kg, po; format: ADME, organism-based; conditions: in vivo
Rattus norvegicus [14] = experiment: AUC in Wistar rat at 11.9 umol/kg, po; format: ADME, organism-based; conditions: in vivo
[15] = Tmax in Wistar rat at 11.9 umol/kg, po; format: ADME, organism-based; conditions: in vivo
[16] = Mean residence time in Wistar rat at 11.9 umol/kg, po; format: ADME, organism-based; conditions: in vivo
[17] = Tmax in Wistar rat at 10.9 umol/kg, po; format: ADME, organism-based; conditions: in vivo
[18] = biological target: Voltage-gated inwardly rectifying potassium channel KCNH2 (Homo sapiens, UniProt Q12809); experiment: Inhibition of human ERG by patch clamp assay
Rattus norvegicus [19] = experiment: AUC in Wistar rat at 10.9 umol/kg, po; format: ADME, organism-based; conditions: in vivo
Rattus norvegicus [20] = experiment: Dose normalized Cmax in Wistar rat at 10.9 umol/kg, po; format: ADME, organism-based; conditions: in vivo
[21] = Mean residence time in Wistar rat at 10.9 umol/kg, po; format: ADME, organism-based; conditions: in vivo

Sequence of Melanin-concentrating hormone receptor 1 (Q99705 whole entry): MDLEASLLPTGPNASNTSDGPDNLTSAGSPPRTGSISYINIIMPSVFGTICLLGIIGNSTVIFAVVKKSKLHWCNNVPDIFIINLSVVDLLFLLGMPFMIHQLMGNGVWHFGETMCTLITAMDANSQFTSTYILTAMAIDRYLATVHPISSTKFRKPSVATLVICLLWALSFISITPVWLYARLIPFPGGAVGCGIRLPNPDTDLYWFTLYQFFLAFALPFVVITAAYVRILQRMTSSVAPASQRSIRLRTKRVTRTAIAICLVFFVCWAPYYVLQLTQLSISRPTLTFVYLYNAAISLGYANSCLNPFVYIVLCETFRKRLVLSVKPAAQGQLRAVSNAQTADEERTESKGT
T2 sequence (Q12809 whole entry): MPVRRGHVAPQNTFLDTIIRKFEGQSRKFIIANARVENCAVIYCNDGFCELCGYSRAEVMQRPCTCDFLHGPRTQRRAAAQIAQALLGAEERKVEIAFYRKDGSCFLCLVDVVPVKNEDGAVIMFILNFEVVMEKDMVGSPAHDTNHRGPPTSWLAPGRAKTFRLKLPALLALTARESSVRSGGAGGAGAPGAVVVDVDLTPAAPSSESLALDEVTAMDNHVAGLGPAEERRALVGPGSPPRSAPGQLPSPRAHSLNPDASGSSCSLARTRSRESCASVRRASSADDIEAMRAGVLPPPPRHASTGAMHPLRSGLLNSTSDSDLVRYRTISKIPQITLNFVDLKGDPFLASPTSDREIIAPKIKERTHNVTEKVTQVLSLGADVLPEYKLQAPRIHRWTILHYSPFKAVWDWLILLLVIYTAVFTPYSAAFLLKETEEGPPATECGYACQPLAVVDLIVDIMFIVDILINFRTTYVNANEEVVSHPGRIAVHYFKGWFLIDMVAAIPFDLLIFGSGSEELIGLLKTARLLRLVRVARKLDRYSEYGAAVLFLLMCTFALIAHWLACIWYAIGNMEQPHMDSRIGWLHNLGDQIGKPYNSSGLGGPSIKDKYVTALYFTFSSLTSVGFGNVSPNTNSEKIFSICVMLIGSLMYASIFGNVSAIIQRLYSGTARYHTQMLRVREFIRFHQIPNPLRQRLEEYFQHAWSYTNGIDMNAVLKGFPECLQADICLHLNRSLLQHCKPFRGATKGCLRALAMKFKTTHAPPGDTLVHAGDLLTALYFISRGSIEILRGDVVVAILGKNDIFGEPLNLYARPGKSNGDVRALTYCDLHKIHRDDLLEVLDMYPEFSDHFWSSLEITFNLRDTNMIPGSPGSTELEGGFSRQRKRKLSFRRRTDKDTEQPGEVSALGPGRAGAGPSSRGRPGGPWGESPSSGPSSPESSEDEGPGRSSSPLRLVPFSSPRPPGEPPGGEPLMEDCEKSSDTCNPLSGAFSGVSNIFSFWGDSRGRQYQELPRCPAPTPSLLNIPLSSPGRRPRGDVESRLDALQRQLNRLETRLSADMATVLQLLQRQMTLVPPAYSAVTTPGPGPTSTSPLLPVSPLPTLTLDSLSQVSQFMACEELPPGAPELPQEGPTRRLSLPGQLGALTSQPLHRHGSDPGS
Sequence of 5-hydroxytryptamine receptor 2A (P28223 whole entry): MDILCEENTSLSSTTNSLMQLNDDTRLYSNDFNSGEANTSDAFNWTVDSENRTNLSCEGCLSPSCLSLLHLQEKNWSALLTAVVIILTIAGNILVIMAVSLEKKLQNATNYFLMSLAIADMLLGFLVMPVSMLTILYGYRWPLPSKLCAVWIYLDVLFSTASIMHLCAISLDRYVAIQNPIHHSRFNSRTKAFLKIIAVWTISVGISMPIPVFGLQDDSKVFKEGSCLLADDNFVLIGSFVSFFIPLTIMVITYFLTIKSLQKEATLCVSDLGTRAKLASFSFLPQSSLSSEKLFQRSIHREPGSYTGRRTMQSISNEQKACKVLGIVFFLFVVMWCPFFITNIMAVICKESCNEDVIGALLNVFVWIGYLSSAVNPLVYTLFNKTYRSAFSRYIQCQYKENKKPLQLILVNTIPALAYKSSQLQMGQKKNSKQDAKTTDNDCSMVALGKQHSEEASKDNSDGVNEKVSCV
Sequence of Voltage-gated inwardly rectifying potassium channel KCNH2 (Q12809 whole entry): as the sequence (Q12809 whole entry) above

O[C@@H]1CCCN(Cc2ccc(OCCCc3ccc(-c4ccc(Cl)cc4)nn3)cc2)C1
IC50 [1]: 15 nM
IC50 [2]: 5470 nM
Activity (U-937): 6.25 µM
IC50 [3]: 595 nM
inhibition at 1 µM (hERG (KCNH2) [4]): 13%

CC(=O)NC1CCN(Cc2ccc(OCCCc3ccc(Oc4ccccc4)nn3)cc2)CC1
IC50 [1]: 10 nM
MRT [5]: 2.9 h
AUC/dose (Rattus norvegicus [6]): 175 nM·h
IC50 [2]: > 10000 nM
Activity (U-937): 100 µM
Cmax/dose (Rattus norvegicus [7]): 531 nM
IC50 [3]: 9650 nM
inhibition at 10 µM (hERG (KCNH2) [8]): 13%
Tmax [9]: 0.8 h

Clc1ccc(-c2ccc(CCCNc3ccc(CN4CCCCC4)cc3)nn2)cc1
IC50 [1]: 4 nM
IC50 [2]: 310 nM
Activity (U-937): 6.25 µM
IC50 [3]: 138 nM
inhibition at 1 µM (hERG (KCNH2) [4]): 8%

CC(=O)NC1CCN(Cc2ccc(OCCCc3ccc(-c4ccc(F)cc4)nn3)cc2)CC1
IC50 [1]: 15 nM
IC50 [2]: 4470 nM
Activity (U-937): 100 µM
IC50 [3]: 713 nM

COc1ccc(-c2ccc(CCCNc3ccc(CN4CCCC(O)C4)cc3)nn2)cc1 (stereo not drawn)
IC50 [2]: > 10000 nM
Activity (U-937): 25 µM
IC50 [3]: > 10000 nM
inhibition at 1 µM (hERG (KCNH2) [4]): 10%

O=C(NCc1ccc(-c2ccc(Cl)cc2)cc1)Nc1ccc(CN2CCCCC2)cc1
IC50 [2]: 511 nM
IC50 [3]: 29 nM

COc1ccc(-c2ccc(CCCNc3ccc(CN4CCC(O)CC4)cc3)nn2)cc1
pKa [10]: 8.6
IC50 [1]: 20 nM
IC50 [2]: > 10000 nM
Activity (U-937): 50 µM
IC50 [3]: 8820 nM
inhibition at 1 µM (hERG (KCNH2) [4]): 10%

CN(C(=O)/C=C/c1ccc(-c2ccc(Cl)cc2)cc1)c1ccc(CN2CCCCC2)cc1
Ratio IC50 (CHO [11]): 1
IC50 [1]: 634 nM
IC50 [2]: 625 nM
IC50 [3]: 362 nM
Ratio IC50 (CHO [12]): 1

OCC1CCN(Cc2ccc(OCCCc3ccc(-c4ccc(Cl)cc4)nn3)cc2)CC1
IC50 [2]: 1650 nM
Activity (U-937): 12.5 µM
IC50 [3]: 790 nM

COc1ccc(-c2ccc(CCCNc3ccc(CN(C)C)cc3)nn2)cc1
IC50 [2]: 1030 nM
IC50 [3]: 4580 nM

Fc1ccc(-c2ccc(CCCNc3ccc(CN4CCCCC4)cc3)nn2)cc1
IC50 [2]: 3740 nM
IC50 [3]: 34 nM

COc1ccc(-c2ccc(CCCNc3ccc(CN4CCCCC4)cc3)nn2)cc1
pKa [10]: 9
IC50 [1]: 7 nM
IC50 [2]: 962 nM
Activity (U-937): 6.25 µM
IC50 [3]: 1810 nM

COc1ccc(-c2ccc(CCCNc3ccc(CN4CCC(NC(C)=O)CC4)cc3)nn2)cc1
Cmax/dose (Rattus norvegicus [13]): 83 nM
AUC/dose (Rattus norvegicus [14]): 476 nM·h
pKa [10]: 8.8
Tmax [15]: 1.5 h
IC50 [1]: 10 nM
IC50 [2]: > 10000 nM
Activity (U-937): 100 µM
IC50 [3]: > 10000 nM
inhibition at 1 µM (hERG (KCNH2) [4]): 7%
MRT [16]: 4 h

COc1ccc(-c2ccc(CCCNc3ccc(CN4CCCC4)cc3)nn2)cc1
IC50 [1]: 95 nM
IC50 [2]: 1860 nM
IC50 [3]: 4540 nM

O=C(COc1ccc(-c2ccc(Cl)cc2)cc1)Nc1ccc(CN2CCCCC2)cc1
Ratio IC50 (CHO [11]): 1
IC50 [1]: 94 nM
IC50 [2]: 446 nM
IC50 [3]: 91 nM
Ratio IC50 (CHO [12]): 5

CC(=O)NC1CCN(Cc2ccc(NCCCc3ccc(Oc4ccccc4)nn3)cc2)CC1
Tmax [17]: 2.8 h
IC50 [18]: > 10000 nM
AUC/dose (Rattus norvegicus [19]): 123 nM·h
IC50 [2]: > 10000 nM
Activity (U-937): > 100 µM
Cmax/dose (Rattus norvegicus [20]): 24 nM
IC50 [3]: > 10000 nM
MRT [21]: 6.4 h

OC1CCN(Cc2ccc(NCCCc3ccc(Oc4ccccc4)nn3)cc2)CC1
pKa [10]: 9.1
IC50 [1]: 24 nM
IC50 [2]: > 10000 nM
Activity (U-937): 50 µM
IC50 [3]: > 10000 nM
inhibition at 10 µM (hERG (KCNH2) [8]): 35%

N#Cc1ccc(-c2ccc(CCCNc3ccc(CN4CCCCC4)cc3)nn2)cc1
IC50 [2]: 1920 nM
IC50 [3]: 1460 nM

CN(CCCc1ccc(-c2ccc(Cl)cc2)cc1)c1ccc(CN2CCCCC2)cc1
IC50 [2]: 419 nM
IC50 [3]: 646 nM

O[C@@H]1CCCN(Cc2ccc(OCCCc3ccc(Oc4ccccc4)nn3)cc2)C1
IC50 [2]: > 10000 nM
IC50 [3]: > 10000 nM

COc1ccc(-c2ccc(CCCNc3ccc(CN4CCOCC4)cc3)nn2)cc1
pKa [10]: 7.6
IC50 [1]: 20 nM
IC50 [2]: > 10000 nM
Activity (U-937): 12.5 µM
IC50 [3]: > 10000 nM
inhibition at 1 µM (hERG (KCNH2) [4]): 5%

OC1CCN(Cc2ccc(OCCCc3ccc(-c4ccc(F)cc4)nn3)cc2)CC1
IC50 [1]: 186 nM
IC50 [2]: > 10000 nM
IC50 [3]: 242 nM

OC1CCN(Cc2ccc(OCCCc3ccc(-c4ccc(Cl)cc4)nn3)cc2)CC1
IC50 [2]: > 10000 nM
Activity (U-937): 25 µM
IC50 [3]: 1410 nM
inhibition at 1 µM (hERG (KCNH2) [4]): 38%

CC(=O)NC1CCN(Cc2ccc(OCCCc3ccc(Cc4ccccc4)nn3)cc2)CC1
IC50 [2]: > 10000 nM
Activity (U-937): 100 µM
IC50 [3]: > 10000 nM
inhibition at 1 µM (hERG (KCNH2) [4]): 13%

Clc1ccc(-c2ccc(CCCNc3ccc(CN4CCCCC4)cc3)cc2)cc1
Ratio IC50 (CHO [11]): 230
IC50 [1]: 3 nM
IC50 [2]: 325 nM
IC50 [3]: 680 nM
inhibition at 1 µM (hERG (KCNH2) [4]): 76%
Ratio IC50 (CHO [12]): 110

OC1CCN(Cc2ccc(NCCCc3ccc(OCc4ccccc4)nn3)cc2)CC1
IC50 [1]: 3 nM
IC50 [2]: > 10000 nM
Activity (U-937): 50 µM
IC50 [3]: > 10000 nM
inhibition at 1 µM (hERG (KCNH2) [4]): 4%

O=C(CCc1ccc(-c2ccc(Cl)cc2)cc1)Nc1ccc(CN2CCCCC2)cc1
Ratio IC50 (CHO [11]): 4
IC50 [1]: 38 nM
IC50 [2]: 89 nM
IC50 [3]: 138 nM
Ratio IC50 (CHO [12]): 2

OCC1CCN(Cc2ccc(OCCCc3ccc(Oc4ccccc4)nn3)cc2)CC1
IC50 [2]: 2110 nM
Activity (U-937): 100 µM
IC50 [3]: > 10000 nM
inhibition at 1 µM (hERG (KCNH2) [4]): 8%

O=C(/C=C/c1ccc(-c2ccc(Cl)cc2)cc1)Nc1ccc(CN2CCCCC2)cc1
Ratio IC50 (CHO [11]): 121
IC50 [1]: 16 nM
IC50 [2]: 401 nM
IC50 [3]: 1930 nM
Ratio IC50 (CHO [12]): 25

O=C(C#Cc1ccc(-c2ccc(Cl)cc2)cc1)Nc1ccc(CN2CCCCC2)cc1
IC50 [2]: 225 nM
